Assay results as given in ChEMBL document CHEMBL1201862, “PubChem BioAssay data set” (2004).
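Exposure lasted 48 hours, with cells grown in 96-well plates and compounds tested at five concentrations. The concentration for 50% growth inhibition is given as GI50.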 Activity calls are given as the source filed them. Rule as the data show it: active = GI50 up to about 1.1 µM and inactive = higher.

Assays:
Assay in all cases: NCI-60 cell line screen, 48 h
786-0 = tested on: 786-0
A498 = tested on: A498
A549 = tested on: A549
ACHN = tested on: ACHN
BT-549 = tested on: BT-549
CAKI-1 = tested on: CAKI-1
CCRF-CEM = tested on: CCRF-CEM
COLO 205 = tested on: COLO 205
DU-145 = tested on: DU-145
EKVX = tested on: EKVX
HCC 2998 = tested on: HCC 2998
HCT-116 = tested on: HCT-116
HCT-15 = tested on: HCT-15
HL-60 = tested on: HL-60
HOP-92 = tested on: HOP-92
HT-29 = tested on: HT-29
Hs-578T = tested on: Hs-578T
IGROV-1 = tested on: IGROV-1
K562 = tested on: K562
KM12 = tested on: KM12
LOX IMVI = tested on: LOX IMVI
M14 = tested on: M14
MCF7 = tested on: MCF7
MDA-MB-231 = tested on: MDA-MB-231
MDA-MB-435 = tested on: MDA-MB-435
MDA-N = tested on: MDA-N
MOLT-4 = tested on: MOLT-4
Malme-3M = tested on: Malme-3M
NCI-H226 = tested on: NCI-H226
NCI-H23 = tested on: NCI-H23
NCI-H460 = tested on: NCI-H460
NCI/ADR-RES = tested on: NCI/ADR-RES
OVCAR-3 = tested on: OVCAR-3
OVCAR-4 = tested on: OVCAR-4
OVCAR-5 = tested on: OVCAR-5
OVCAR-8 = tested on: OVCAR-8
PC-3 = tested on: PC-3
RXF 393 = tested on: RXF 393
SF-268 = tested on: SF-268
SF-295 = tested on: SF-295
SF-539 = tested on: SF-539
SK-MEL-28 = tested on: SK-MEL-28
SK-MEL-2 = tested on: SK-MEL-2
SK-MEL-5 = tested on: SK-MEL-5
SK-OV-3 = tested on: SK-OV-3
SN12C = tested on: SN12C
SNB-19 = tested on: SNB-19
SNB-75 = tested on: SNB-75
SW-620 = tested on: SW-620
T47D = tested on: T47D
TK-10 = tested on: TK-10
U-251 = tested on: U-251
UACC-257 = tested on: UACC-257
UACC-62 = tested on: UACC-62
UO-31 = tested on: UO-31
HOP-62 = tested on: HOP-62
NCI-H522 = tested on: NCI-H522
RPMI-8226 = tested on: RPMI-8226

CC(=O)N(CCc1ccccc1)C(C#N)c1ccc(OCCCCCCCCCCOc2ccc(C(C#N)N(CCc3ccccc3)C(C)=O)cc2)cc1 (stereo unspecified)
GI50 (786-0): 16.2 µM (inactive) | GI50 (A498): 31.3 µM (inactive) | GI50 (A549): > 100 µM (inactive) | GI50 (ACHN): 66.4 µM (inactive) | GI50 (BT-549): 33 µM (inactive) | GI50 (CAKI-1): 97.3 µM (inactive) | GI50 (CCRF-CEM): > 100 µM (inactive) | GI50 (COLO 205): > 100 µM (inactive) | GI50 (DU-145): 85.9 µM (inactive) | GI50 (EKVX): 36.5 µM (inactive) | GI50 (HCC 2998): > 100 µM (inactive) | GI50 (HCT-116): > 100 µM (inactive) | GI50 (HCT-15): 99.1 µM | GI50 (HL-60): > 100 µM (inactive) | GI50 (HOP-92): 15 µM (inactive) | GI50 (HT-29): > 100 µM (inactive) | GI50 (Hs-578T): 17.1 µM (inactive) | GI50 (IGROV-1): 31.6 µM (inactive) | GI50 (K562): > 100 µM (inactive) | GI50 (KM12): > 100 µM (inactive) | GI50 (LOX IMVI): > 100 µM (inactive) | GI50 (M14): > 100 µM (inactive) | GI50 (MCF7): > 100 µM (inactive) | GI50 (MDA-MB-231): 15.2 µM (inactive) | GI50 (MDA-MB-435): > 100 µM (inactive) | GI50 (MDA-N): > 100 µM (inactive) | GI50 (MOLT-4): > 100 µM (inactive) | GI50 (Malme-3M): > 100 µM (inactive) | GI50 (NCI-H226): 22 µM (inactive) | GI50 (NCI-H23): 44.9 µM (inactive) | GI50 (NCI-H460): 94.8 µM (inactive) | GI50 (NCI/ADR-RES): 24.6 µM (inactive) | GI50 (OVCAR-3): > 100 µM (inactive) | GI50 (OVCAR-4): 5.41 µM (inactive) | GI50 (OVCAR-5): > 100 µM (inactive) | GI50 (OVCAR-8): 23 µM (inactive) | GI50 (PC-3): 63.4 µM (inactive) | GI50 (RXF 393): 22.6 µM (inactive) | GI50 (SF-268): 21.7 µM (inactive) | GI50 (SF-295): 12.4 µM (inactive) | GI50 (SF-539): 23.3 µM (inactive) | GI50 (SK-MEL-28): > 100 µM (inactive) | GI50 (SK-MEL-2): 47.2 µM (inactive) | GI50 (SK-MEL-5): > 100 µM (inactive) | GI50 (SK-OV-3): 22.9 µM (inactive) | GI50 (SN12C): > 100 µM (inactive) | GI50 (SNB-19): 20.5 µM (inactive) | GI50 (SNB-75): 17.7 µM (inactive) | GI50 (SW-620): > 100 µM (inactive) | GI50 (T47D): 41 µM (inactive) | GI50 (TK-10): 41.2 µM (inactive) | GI50 (U-251): 21.7 µM (inactive) | GI50 (UACC-257): > 100 µM (inactive) | GI50 (UACC-62): 62.1 µM (inactive) | GI50 (UO-31): 62.2 µM (inactive)

O=S(=O)(O)c1cc(S(=O)(=O)O)c2c(Nc3ccnc4ccccc34)ccc(S(=O)(=O)O)c2c1
GI50 (786-0): > 100 µM (inactive) | GI50 (A498): > 100 µM (inactive) | GI50 (A549): > 100 µM (inactive) | GI50 (ACHN): > 100 µM (inactive) | GI50 (BT-549): > 100 µM (inactive) | GI50 (CAKI-1): > 100 µM (inactive) | GI50 (CCRF-CEM): > 100 µM (inactive) | GI50 (COLO 205): > 100 µM (inactive) | GI50 (DU-145): > 100 µM (inactive) | GI50 (EKVX): > 100 µM (inactive) | GI50 (HCC 2998): > 100 µM (inactive) | GI50 (HCT-116): > 100 µM (inactive) | GI50 (HCT-15): > 100 µM | GI50 (HL-60): > 100 µM (inactive) | GI50 (HOP-62): > 100 µM (inactive) | GI50 (HT-29): > 100 µM (inactive) | GI50 (Hs-578T): > 100 µM (inactive) | GI50 (IGROV-1): > 100 µM (inactive) | GI50 (KM12): > 100 µM (inactive) | GI50 (LOX IMVI): > 100 µM (inactive) | GI50 (M14): > 100 µM (inactive) | GI50 (MCF7): > 100 µM (inactive) | GI50 (MDA-MB-231): > 100 µM (inactive) | GI50 (MDA-MB-435): > 100 µM (inactive) | GI50 (MDA-N): > 100 µM (inactive) | GI50 (MOLT-4): > 100 µM (inactive) | GI50 (Malme-3M): > 100 µM (inactive) | GI50 (NCI-H226): > 100 µM (inactive) | GI50 (NCI-H23): > 100 µM (inactive) | GI50 (NCI-H460): > 100 µM (inactive) | GI50 (NCI-H522): > 100 µM (inactive) | GI50 (NCI/ADR-RES): > 100 µM (inactive) | GI50 (OVCAR-3): > 100 µM (inactive) | GI50 (OVCAR-4): > 100 µM (inactive) | GI50 (OVCAR-5): > 100 µM (inactive) | GI50 (OVCAR-8): > 100 µM (inactive) | GI50 (PC-3): > 100 µM (inactive) | GI50 (RPMI-8226): > 100 µM (inactive) | GI50 (RXF 393): > 100 µM (inactive) | GI50 (SF-268): > 100 µM (inactive) | GI50 (SF-295): > 100 µM (inactive) | GI50 (SF-539): > 100 µM (inactive) | GI50 (SK-MEL-28): > 100 µM (inactive) | GI50 (SK-MEL-2): > 100 µM (inactive) | GI50 (SK-MEL-5): > 100 µM (inactive) | GI50 (SK-OV-3): > 100 µM (inactive) | GI50 (SN12C): > 100 µM (inactive) | GI50 (SNB-19): > 100 µM (inactive) | GI50 (SNB-75): > 100 µM (inactive) | GI50 (SW-620): > 100 µM (inactive) | GI50 (T47D): > 100 µM (inactive) | GI50 (TK-10): > 100 µM (inactive) | GI50 (U-251): > 100 µM (inactive) | GI50 (UACC-257): > 100 µM (inactive) | GI50 (UACC-62): > 100 µM (inactive) | GI50 (UO-31): > 100 µM (inactive)
